Results reported in patent US10253052B2, “HBED-bisphosphonates, radiometal conjugates and their use as theranostic agents” (Five Eleven Pharma Inc., priority 2015, dated 2019).
Where “and” joins values, the source holds several entries; their conditions need not be identical. Equal entries are not always repeated. One block for each compound: values may come before it.

Tests used:
[1] = In vitro binding to hydroxyapatite; conditions: 20 mg hydroxyapatite in saline, 10 min at room temperature
Outline: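 Binding is given as the percentage of ^68Ga activity retained by hydroxyapatite, measured by gamma counting of the solid versus the pooled supernatant and saline washes. The tracer (1 μCi) was exposed for 10 min at room temperature to hydroxyapatite pre-soaked 24 h in isotonic saline.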

[2] = Micro-PET imaging in normal mice; format: in vivo, normal CD-1 male mice; conditions: 15 min scan at 60 min post-injection
Experimental: [^68Ga]1a, [^68Ga]BPAMD and [^18F]NaF were tested in normal CD-1 male mice. [^68Ga]1g was tested in PSMA expressing LNCaP tumor bearing nude mice. Mice received 300-500 uCi radiotracer through a tail vein injection. PET imaging was performed under isoflurane anaesthesia (2% isoflurane, 1.5 L/min oxygen). The microPET imaging was performed with a small animal PET (Mosaic by Phillips, USA). During PET measurements, the animals were placed in the prone position. At 60 min post injection of the radiotracer, data acquisition was performed for 15 min.

[3] = In vivo biodistribution in mice; design: species or system normal CD-1 male mice; conditions: for bone to blood ratio / bone to muscle ratio / Biodistribution: Blood / Biodistribution: Bone / Biodistribution: Brain / Biodistribution: Heart / Biodistribution: Kidney / Biodistribution: Liver / Biodistribution: Lung / Biodistribution: Muscle / Biodistribution: Pancreas / Biodistribution: Skin / Biodistribution: Spleen: iv
Outline: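 Uptake values are % injected dose per gram of wet tissue, from gamma counting of weighed organs with tibia plus femur taken as bone. Tracers (20-30 μCi per animal) were given i.v. to healthy male CD-1 mice (25-30 g), with sacrifice at 2, 30, 60 and 120 min post injection.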

- Hydroxyapatite Binding (%) [1]: 78.4 ± 3.9%
- bone to blood ratio ([3]; 2 min): 1.9
- bone to muscle ratio ([3]; 2 min): 7.2
- Biodistribution: Blood ([3]; 2 min post injection): 5.56 ± 0.37 % dose/g
- Biodistribution: Bone ([3]; 2 min post injection): 10.8 ± 0.51 % dose/g
- Biodistribution: Brain ([3]; 2 min post injection): 0.22 ± 0.07 % dose/g
- Biodistribution: Heart ([3]; 2 min post injection): 2.80 ± 0.24 % dose/g
- Biodistribution: Kidney ([3]; 2 min post injection): 10.4 ± 1.22 % dose/g
- Biodistribution: Liver ([3]; 2 min post injection): 2.56 ± 0.24 % dose/g
- Biodistribution: Lung ([3]; 2 min post injection): 3.37 ± 0.17 % dose/g
- Biodistribution: Muscle ([3]; 2 min post injection): 1.50 ± 0.06 % dose/g
- Biodistribution: Pancreas ([3]; 2 min post injection): 1.76 ± 0.07 % dose/g
- Biodistribution: Skin ([3]; 2 min post injection): 2.35 ± 0.45 % dose/g
- Biodistribution: Spleen ([3]; 2 min post injection): 2.33 ± 0.14 % dose/g
- bone to blood ratio ([3]; 30 min): 38
- bone to muscle ratio ([3]; 30 min): 73
- Biodistribution: Blood ([3]; 30 min (0.5 hr) post injection): 0.64 ± 0.08 % dose/g
- Biodistribution: Bone ([3]; 30 min (0.5 hr) post injection): 24.2 ± 2.71 % dose/g
- Biodistribution: Brain ([3]; 30 min (0.5 hr) post injection): 0.10 ± 0.02 % dose/g
- Biodistribution: Heart ([3]; 30 min (0.5 hr) post injection): 0.96 ± 0.23 % dose/g
- Biodistribution: Kidney ([3]; 30 min (0.5 hr) post injection): 1.70 ± 0.62 % dose/g
- Biodistribution: Liver ([3]; 30 min (0.5 hr) post injection): 0.65 ± 0.17 % dose/g
- Biodistribution: Lung ([3]; 30 min (0.5 hr) post injection): 0.55 ± 0.11 % dose/g
- Biodistribution: Muscle ([3]; 30 min (0.5 hr) post injection): 0.33 ± 0.11 % dose/g
- Biodistribution: Pancreas ([3]; 30 min (0.5 hr) post injection): 0.42 ± 0.27 % dose/g
- Biodistribution: Skin ([3]; 30 min (0.5 hr) post injection): 0.51 ± 0.11 % dose/g
- Biodistribution: Spleen ([3]; 30 min (0.5 hr) post injection): 0.93 ± 0.56 % dose/g
- bone to blood ratio ([3]; 60 min): 161
- bone to muscle ratio ([3]; 60 min): 291 and 281
- Biodistribution: Blood ([3]; 60 min (1 hr) post injection): 0.15 ± 0.01 % dose/g
- Biodistribution: Brain ([3]; 60 min (1 hr) post injection): 0.06 ± 0.01 % dose/g
- Biodistribution: Heart ([3]; 60 min (1 hr) post injection): 0.18 ± 0.02 % dose/g
- Biodistribution: Kidney ([3]; 60 min (1 hr) post injection): 0.68 ± 0.36 % dose/g
- Biodistribution: Liver ([3]; 60 min (1 hr) post injection): 0.13 ± 0.01 % dose/g
- Biodistribution: Lung ([3]; 60 min (1 hr) post injection): 0.14 ± 0.01 % dose/g
- Biodistribution: Muscle ([3]; 60 min (1 hr) post injection): 0.09 ± 0.02 % dose/g
- Biodistribution: Pancreas ([3]; 60 min (1 hr) post injection): 0.07 ± 0.00 % dose/g
- Biodistribution: Skin ([3]; 60 min (1 hr) post injection): 0.11 ± 0.02 % dose/g
- Biodistribution: Spleen ([3]; 60 min (1 hr) post injection): 0.12 ± 0.02 % dose/g
- bone to blood ratio ([3]; 120 min): 760
- bone to muscle ratio ([3]; 120 min): 593
- Biodistribution: Blood ([3]; 120 min post injection): 0.03 ± 0.00 % dose/g
- Biodistribution: Bone ([3]; 120 min post injection): 25.2 ± 3.89 % dose/g
- Biodistribution: Brain ([3]; 120 min post injection): 0.04 ± 0.00 % dose/g
- Biodistribution: Heart ([3]; 120 min post injection): 0.04 ± 0.00 % dose/g
- Biodistribution: Kidney ([3]; 120 min post injection): 0.57 ± 0.43 % dose/g
- Biodistribution: Liver ([3]; 120 min post injection): 0.03 ± 0.01 % dose/g
- Biodistribution: Lung ([3]; 120 min post injection): 0.04 ± 0.01 % dose/g
- Biodistribution: Muscle ([3]; 120 min post injection): 0.04 ± 0.04 % dose/g
- Biodistribution: Pancreas ([3]; 120 min post injection): 0.02 ± 0.00 % dose/g
- Biodistribution: Skin ([3]; 120 min post injection): 0.03 ± 0.00 % dose/g
- Biodistribution: Spleen ([3]; 120 min post injection): 0.03 ± 0.01 % dose/g
SMILES: [18F-].[Na+] [[^18F]NaF, reference compound]
- Micro-PET localization (in words) [2]: localized in the spines of mice
- Biodistribution: Bone ([3]; 60 min (1 hr) post injection): 24.6±3.2 % dose/g and 24.6 ± 3.18 % dose/g

SMILES: O=C(O)CN1CCN(CC(=O)O)CCN(CC(=O)NC(P(=O)(O)O)P(=O)(O)O)CCN(CC(=O)O)CC1.[68Ga] [[^68Ga]BPAMD, reference compound]
- Hydroxyapatite Binding (%) [1]: 90.6 ± 6.0%
- Micro-PET localization (in words) [2]: localized in the spines of mice
- bone to blood ratio ([3]; 2 min): 0.8
- bone to muscle ratio ([3]; 2 min): 4.3
- Biodistribution: Blood ([3]; 2 min post injection): 9.45 ± 0.55 % dose/g
- Biodistribution: Bone ([3]; 2 min post injection): 7.07 ± 0.94 % dose/g
- Biodistribution: Brain ([3]; 2 min post injection): 0.26 ± 0.01 % dose/g
- Biodistribution: Heart ([3]; 2 min post injection): 2.74 ± 0.23 % dose/g
- Biodistribution: Kidney ([3]; 2 min post injection): 22.1 ± 8.80 % dose/g
- Biodistribution: Liver ([3]; 2 min post injection): 1.92 ± 0.31 % dose/g
- Biodistribution: Lung ([3]; 2 min post injection): 4.58 ± 0.36 % dose/g
- Biodistribution: Muscle ([3]; 2 min post injection): 1.63 ± 0.35 % dose/g
- Biodistribution: Pancreas ([3]; 2 min post injection): 1.73 ± 0.11 % dose/g
- Biodistribution: Skin ([3]; 2 min post injection): 2.57 ± 0.53 % dose/g
- Biodistribution: Spleen ([3]; 2 min post injection): 1.90 ± 0.14 % dose/g
- bone to blood ratio ([3]; 30 min): 10
- bone to muscle ratio ([3]; 30 min): 19
- Biodistribution: Blood ([3]; 30 min (0.5 hr) post injection): 1.02 ± 0.19 % dose/g
- Biodistribution: Bone ([3]; 30 min (0.5 hr) post injection): 10.5 ± 0.6 % dose/g
- Biodistribution: Brain ([3]; 30 min (0.5 hr) post injection): 0.06 ± 0.02 % dose/g
- Biodistribution: Heart ([3]; 30 min (0.5 hr) post injection): 0.29 ± 0.02 % dose/g
- Biodistribution: Kidney ([3]; 30 min (0.5 hr) post injection): 1.46 ± 0.19 % dose/g
- Biodistribution: Liver ([3]; 30 min (0.5 hr) post injection): 0.22 ± 0.02 % dose/g
- Biodistribution: Lung ([3]; 30 min (0.5 hr) post injection): 0.50 ± 0.16 % dose/g
- Biodistribution: Muscle ([3]; 30 min (0.5 hr) post injection): 0.55 ± 0.11 % dose/g
- Biodistribution: Pancreas ([3]; 30 min (0.5 hr) post injection): 0.27 ± 0.14 % dose/g
- Biodistribution: Skin ([3]; 30 min (0.5 hr) post injection): 0.39 ± 0.15 % dose/g
- Biodistribution: Spleen ([3]; 30 min (0.5 hr) post injection): 0.22 ± 0.14 % dose/g
- bone to blood ratio ([3]; 60 min): 10
- bone to muscle ratio ([3]; 60 min): 30
- Biodistribution: Blood ([3]; 60 min (1 hr) post injection): 0.93 ± 0.06 % dose/g
- Biodistribution: Bone ([3]; 60 min (1 hr) post injection): 9.21 ± 0.90 % dose/g
- Biodistribution: Brain ([3]; 60 min (1 hr) post injection): 0.04 ± 0.00 % dose/g
- Biodistribution: Heart ([3]; 60 min (1 hr) post injection): 0.37 ± 0.06 % dose/g
- Biodistribution: Kidney ([3]; 60 min (1 hr) post injection): 2.88 ± 1.51 % dose/g
- Biodistribution: Liver ([3]; 60 min (1 hr) post injection): 0.25 ± 0.03 % dose/g
- Biodistribution: Lung ([3]; 60 min (1 hr) post injection): 0.51 ± 0.09 % dose/g
- Biodistribution: Muscle ([3]; 60 min (1 hr) post injection): 0.31 ± 0.04 % dose/g
- Biodistribution: Pancreas ([3]; 60 min (1 hr) post injection): 0.30 ± 0.02 % dose/g
- Biodistribution: Skin ([3]; 60 min (1 hr) post injection): 0.60 ± 0.08 % dose/g
- Biodistribution: Spleen ([3]; 60 min (1 hr) post injection): 0.21 ± 0.02 % dose/g
- bone to blood ratio ([3]; 120 min): 11
- bone to muscle ratio ([3]; 120 min): 33
- Biodistribution: Blood ([3]; 120 min post injection): 0.90 ± 0.41 % dose/g
- Biodistribution: Bone ([3]; 120 min post injection): 9.62 ± 0.71 % dose/g
- Biodistribution: Brain ([3]; 120 min post injection): 0.03 ± 0.01 % dose/g
- Biodistribution: Heart ([3]; 120 min post injection): 0.26 ± 0.07 % dose/g
- Biodistribution: Kidney ([3]; 120 min post injection): 1.09 ± 0.26 % dose/g
- Biodistribution: Liver ([3]; 120 min post injection): 0.31 ± 0.11 % dose/g
- Biodistribution: Lung ([3]; 120 min post injection): 0.45 ± 0.10 % dose/g
- Biodistribution: Muscle ([3]; 120 min post injection): 0.29 ± 0.06 % dose/g
- Biodistribution: Pancreas ([3]; 120 min post injection): 0.33 ± 0.07 % dose/g
- Biodistribution: Skin ([3]; 120 min post injection): 0.55 ± 0.04 % dose/g
- Biodistribution: Spleen ([3]; 120 min post injection): 0.25 ± 0.08 % dose/g
- Biodistribution result in words (organ uptake, retention, excretion) ([3]; normal mice after iv injection): less bone uptake and retention
